This experiment concerns the target T1, rSlo2 channels (Rattus norvegicus, UniProt Q9Z258).
T1 construct: expressed in transfected cells; host or cells: Xenopus laevis oocytes injected with capped cRNA (pOX vector); inside-out patches
T1 sequence (Q9Z258 1-1239): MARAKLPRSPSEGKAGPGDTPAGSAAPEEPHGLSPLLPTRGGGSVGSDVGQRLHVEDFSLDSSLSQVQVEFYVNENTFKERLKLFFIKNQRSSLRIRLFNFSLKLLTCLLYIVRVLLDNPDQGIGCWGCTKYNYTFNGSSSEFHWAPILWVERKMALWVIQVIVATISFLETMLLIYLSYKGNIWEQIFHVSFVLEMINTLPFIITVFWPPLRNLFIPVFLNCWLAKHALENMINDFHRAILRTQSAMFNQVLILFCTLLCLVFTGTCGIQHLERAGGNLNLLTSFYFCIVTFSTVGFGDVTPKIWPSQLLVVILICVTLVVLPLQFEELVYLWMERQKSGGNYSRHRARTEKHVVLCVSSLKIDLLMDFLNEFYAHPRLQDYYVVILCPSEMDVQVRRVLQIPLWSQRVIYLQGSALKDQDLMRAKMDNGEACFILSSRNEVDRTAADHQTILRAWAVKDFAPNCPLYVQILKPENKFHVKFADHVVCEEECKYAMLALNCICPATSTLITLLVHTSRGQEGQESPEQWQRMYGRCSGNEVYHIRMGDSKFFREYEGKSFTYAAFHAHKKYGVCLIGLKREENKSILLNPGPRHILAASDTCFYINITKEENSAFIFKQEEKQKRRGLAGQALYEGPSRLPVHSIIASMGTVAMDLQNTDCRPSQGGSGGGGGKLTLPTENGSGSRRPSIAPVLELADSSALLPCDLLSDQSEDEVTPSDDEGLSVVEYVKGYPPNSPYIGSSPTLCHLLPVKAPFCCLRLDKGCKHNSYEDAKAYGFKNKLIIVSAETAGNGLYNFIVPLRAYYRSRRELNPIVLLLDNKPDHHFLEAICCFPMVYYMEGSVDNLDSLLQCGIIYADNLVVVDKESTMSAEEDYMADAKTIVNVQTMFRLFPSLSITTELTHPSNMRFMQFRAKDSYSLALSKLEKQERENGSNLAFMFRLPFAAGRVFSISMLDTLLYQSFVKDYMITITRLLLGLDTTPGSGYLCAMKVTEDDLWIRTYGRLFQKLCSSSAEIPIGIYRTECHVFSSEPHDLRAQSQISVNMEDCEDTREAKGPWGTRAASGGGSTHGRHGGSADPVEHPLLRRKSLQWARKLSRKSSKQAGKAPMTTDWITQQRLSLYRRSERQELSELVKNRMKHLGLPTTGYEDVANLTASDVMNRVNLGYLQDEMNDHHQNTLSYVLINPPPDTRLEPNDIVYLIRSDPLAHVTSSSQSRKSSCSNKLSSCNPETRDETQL
The experiment can be described thus: Patch clamp of inside-out patches from Xenopus oocytes injected with rSlo2 cRNA. Type of experiment: cell-based. The protocol:
FIG. 2a depicts current traces from an inside-out macropatch (2-3 MΩ electrode prior to seal formation) in the presence of 50 mM [Na+], FIG. 2a (i) and in the absence of [Na^+]i FIG. 2a (ii). Voltage steps (−70 mV to +70 mV) were applied in 10 mV increments from a holding potential of −70 mV. The calculated potassium equilibrium potential was −78 mV in these experiments. FIG. 2a (iii) The current-voltage relationship of the mean current obtained from 7 macropatches with a holding potential of −80 mV, and voltage steps from −80 to +80 mV in 10 mV increments FIG. 2a (iv) Plot of normalized IKNa obtained upon perfusion of inside-out patches with different Na^+ concentrations as indicated.
FIG. 2c depicts a current trace of an uninjected oocyte. […] For the macropatch experiments the pipette solution contained (in mM) 145 Na^+-gluconate, 5 KCI, 5 Ca^2+-gluconate, 3 Mg^2+-gluconate, 11 dextrose, 5 HEPES, pH 7.4 with NaOH. The bath solution contained (in mM): 110 KCI, 50 NaCI and 5 HEPES, pH 7.3 with KOH. NaCI was replaced by choline-Cl for the dose-response curve. In single channel experiments, the pipette solution contained (in mM) 80 K^+-gluconate, […], 5 HEPES, 2 MgCI2, pH 7.2 with KOH. The bath solution contained (in mM) 80 KCI, 80 NaCI or 80 cholineCl, 5 HEPES, 5 EGTA, pH 7.2 with KOH.
FIG. 5a (iii) depicts the current-voltage relationship of the mean current between 700-800 ms. The pipette solution contained (in mM) 80 K^+-gluconate, 80 Na^+-gluconate, 5 HEPES, 2 MgCI2, pH 7.2 with KOH. The bath solution contained (in mM) 80 KCI or 80 K^+-gluconate, 20 NaCI and 60 choline-Cl or 20 Na^+-gluconate and 120 dextrose, 5 HEPES, 5 EGTA, pH 7.2 with KOH. (b) (i) Dose response relationship for [Na+]i at 160 mM [CI]i or 10 mM [CI]i,. (ii) Dose response relationship for [CI]i at 80 mM [Na^+]i or 20 mM [Na^+]i. Currents for the dose response curves were measured and averaged over a 1 second interval at −60 mV and each patch was normalized to the current elicited in 80 mM [Na^+]i, and 160 mM [CI]i. Each experiment was completed within 120 seconds to minimize rundown and was perfused in order of decreasing [Na^+]i or [CI]i.
The single electrode patch clamp system was first used to analyze inside-out patches, and to investigate the properties of rSlo2 in the Xencpus oocyte expression system by transcribing cRNA and injecting it into oocytes.
To obtain efficient expression of rhSlo2.2 in Xencpus oocytes, the original rhSlo2.2 construct was cloned into pOX, a special vector optimized for oocyte expression. Capped cRNA was synthesized using the T3 mMessage mMachine kit (Ambion). rhSlo2.2 was linearized using NotI. Reactions were resuspended in nuclease-free water to a final concentration of 1.5 μg/μl. Oocytes were harvested from adult female Xenopus iaevis as described. Defolliculated oocytes were injected with approximately 75 ng of cRNA using a Drummond Nanojector. Injected oocytes were incubated at 19° C. in ND96 medium (in mM): 96 NaCl, 2 KCI, 1.8 CaCl2, 1 MgCl2, 5 HEPES, pH 7.5 with NaOH. Oocytes were analyzed 2-3 days after injection for single channel analysis or 3-6 days after injection for macroscopic current analysis.
Prior to recording, the vitelline membranes were mechanically removed. The contents of solutions used are described in the figure legends. […] Data were analyzed using pClamp 8.2 (Axon Instruments) and Sigmaplot 5 (Jandel Scientific) or Origin 5.0 (Microcal).

We go through three molecules from patent US20040241720A1, “Sodium activated potassium ion channel for therapeutic drug screening” (priority 2003, published 2004).

Molecules are shown by their SMILES.

With `[Ca+2]` [Ca^2+i], the single channel activity result (about 100 μM Ca^2+i, in the absence of Na^+i (data not shown)) is “inhibited”. For the same molecule, where the note is “presence of about 80 μM ~200 μM Ca^2+i (data not shown)”, the channel activity result was “no effect”. Turning to `Cl` [Cl^−], the “current as fraction of I max” value (55 mM Cl^−, 20 mM sodium ions, estimated from dose response plot) is given as “approximately 0.18 of I max”. Moreover, for the setting “seen only when Na^+i is also present”, the “activation of rSlo2 by Cl^−i” value is “activated”. For `[Na+]` [Na^+], under “sodium concentration at cytoplasmic side increased from 10 to 50 mM, inside-out patch”, the “increase of amplitude of macroscopic current in patches” value is on record as “more than ten times”.
